According to ChEMBL document CHEMBL4364241, “Developments in the anticancer activity of structurally modified curcumin: An up-to-date review” (Eur J Med Chem, 2019):

Key:
[1] = biological target: Tyrosine-protein kinase ABL1 (Homo sapiens, UniProt P00519, Y253F); assay: Inhibition of ABL Y253F mutant (unknown origin)
[2] = biological target: Tyrosine-protein kinase ABL1 (Homo sapiens, UniProt P00519, T315I); assay: Inhibition of ABL T315I mutant (unknown origin)
[3] = biological target: Tyrosine-protein kinase ABL1 (Homo sapiens, UniProt P00519); assay: Inhibition of Wild type ABL (unknown origin)
[4] = biological target: Tyrosine-protein kinase ABL1 (Homo sapiens, UniProt P00519, Q252H); assay: Inhibition of ABL Q252H mutant (unknown origin)
[5] = test system: THP-1; assay: Cytotoxicity against human THP1 Cells; type: functional, cell-based
[6] = test system: L02; assay: Cytotoxicity against human LO2 Cells; type: functional, cell-based
[7] = test system: HepG2; assay: Cytotoxicity against human HepG2 Cells; type: functional, cell-based
[8] = test system: K562; assay: Antiproliferative activity against human K562 Cells; type: functional, cell-based
[9] = test system: HeLa; assay: Cytotoxicity against human HeLa Cells; type: functional, cell-based
[10] = Antiproliferative activity against human K562/G01 cells; type: functional, cell-based

Work on `COc1cc(C=C(C(=O)/C=C/c2ccc(O)c(OC)c2)C(=O)/C=C/c2ccc(O)c(OC)c2)ccc1O` yielded an IC50 [1] of 79.8 nM, an IC50 [2] of 67.3 nM and an IC50 [3] of 83.3 nM. The IC50 [4] was 185 nM.
`C/C(=C/C(=O)c1ccccc1)Nc1cccc(/C=C2\CN(C)C/C(=C\c3cccc(N/C(C)=C/C(=O)c4ccccc4)c3)C2=O)c1` gave an IC50 [5] of 1170 nM, an IC50 [6] of 13100 nM and an IC50 [7] of 5520 nM. The IC50 [8] was 4800 nM and the IC50 [9] was over 10000 nM.
For `COc1cc(/C=C/C(=O)C(=Cc2ccncc2)C(=O)/C=C/c2ccc(O)c(OC)c2)ccc1O`, the IC50 [8] was 1100 nM and the IC50 [10] was 600 nM.
